The source of these data is PubChem BioAssay (NCI).

Values joined by “and” are separate entries in the source; they are usually repeats but may differ in a detail not shown here. Identical values can stand only once.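 Test compounds were applied to cells in 96-well plates for 48 hours at 5 doses. The concentration for 50% growth inhibition is given as GI50. TGI marks complete inhibition of growth.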

Some test systems named below: BT-549 breast; HS 578T breast; K-562 leukemia; LOX IMVI melanoma; NCI-H522 lung; OVCAR-5 ovarian; SF-539 CNS; SK-MEL-5 melanoma; U251 CNS; NCI-H23 lung.
What all share (assay): NCI tumour cell line growth inhibition, 48 h

In the case of `CC1=C(C(=O)Nc2ccc(Cl)c(Cl)c2)C(c2cccc(O)c2)NC(=S)N1` (centres undefined), the GI50 is 7.97 µM with BT-549 breast; 9.5 µM in the assay with HS 578T breast; 10.8 µM with K-562 leukemia; 7.09 µM in the assay with LOX IMVI melanoma; 12 µM in the assay with NCI-H522 lung; greater than 50 µM in the assay with OVCAR-5 ovarian. The GI50 in the assay on SF-539 CNS was 8.15 µM; with SK-MEL-5 melanoma it was 8.12 µM; with U251 CNS it was 8.82 µM. Further, the TGI in the assay on BT-549 breast is 19.3 µM; in the assay with HS 578T breast, 24.9 µM; in the assay with K-562 leukemia, 37.3 µM; in the assay with LOX IMVI melanoma, 13.8 µM; with NCI-H522 lung it was 25.2 µM; in the assay on OVCAR-5 ovarian it was greater than 50 µM. Besides, the TGI in the assay with SF-539 CNS stood at 15.7 µM; with SK-MEL-5 melanoma it was 15.4 µM; in the assay on U251 CNS, 18.1 µM.

Regarding `CCOC(=O)C1=C(N)Oc2cc(OC)ccc2C1c1ccc(F)c(F)c1` (centres undefined), the GI50 with BT-549 breast was 2.05 µM; in the assay on HS 578T breast it was 2.48 µM; with LOX IMVI melanoma, 1.36 µM; with NCI-H23 lung it was 2.89 µM; in the assay on NCI-H522 lung, 0.498 µM; in the assay with OVCAR-5 ovarian, 10.5 µM. Besides, the GI50 was 2.13 µM in the assay on SF-539 CNS, 1.68 µM in the assay with SK-MEL-5 melanoma and 1.84 µM in the assay with U251 CNS. Also, the TGI in the assay with BT-549 breast amounted to 16.3 µM; in the assay on HS 578T breast, 21.3 µM; with LOX IMVI melanoma, 19 µM; in the assay on NCI-H23 lung, 18.4 µM; with NCI-H522 lung it was 10.2 µM; in the assay with OVCAR-5 ovarian it was 24.1 µM. Besides, the TGI was 8.3 µM in the assay with SF-539 CNS, 12.6 µM with SK-MEL-5 melanoma and 14.3 µM with U251 CNS.

Consider `COC(C(=O)[C@@H](O)[C@@H](C)O)[C@@H]1Cc2cc3cc(O[C@H]4C[C@@H](O[C@H]5C[C@@H](O)[C@H](O)C(C)O5)[C@H](O)C(C)O4)c(C)c(O)c3c(O)c2C(=O)[C@H]1O[C@H]1C[C@@H](O[C@H]2C[C@@H](O[C@H]3C[C@@H](O)[C@@H](O)C(C)O3)[C@@H](O)C(C)O2)[C@H](O)C(C)O1` (some centres undefined), for which the GI50 in the assay with BT-549 breast is 0.149 µM; in the assay on HS 578T breast, 0.126 µM; with K-562 leukemia, 0.312 µM; in the assay with LOX IMVI melanoma, 0.0639 µM; in the assay on NCI-H23 lung, 0.242 µM; in the assay on NCI-H522 lung it was 0.058 µM. The results for the GI50 with OVCAR-5 ovarian, with SF-539 CNS and in the assay with U251 CNS were 0.485 µM, 0.147 µM and 0.121 µM, respectively. Moreover, the TGI with BT-549 breast was 4.42 µM; in the assay with HS 578T breast, 12.3 µM; in the assay on K-562 leukemia it was greater than 32.5 µM; with LOX IMVI melanoma, 0.471 µM; in the assay on NCI-H23 lung, 9.05 µM; with NCI-H522 lung it was 1.62 µM. Further, the TGI with OVCAR-5 ovarian is greater than 32.5 µM; in the assay on SF-539 CNS, 2.82 µM; with U251 CNS, greater than 32.5 µM.

In the case of `COC(=O)C12OCC34C(CC5C(C)=CC(=O)C(O)C5(C)C3C(O)C1O)OC(=O)C(OC(=O)CC(C)C)C24` (centres undefined), the TGI in the assay with BT-549 breast amounted to 0.00549 µM; in the assay with HS 578T breast it was 0.000948 µM; in the assay with NCI-H522 lung it was 0.00118 µM. Besides, the GI50 is < 0.0336 µM and 0.05 µM in the assay on LOX IMVI melanoma; < 0.046 µM and 0.05 µM in the assay with NCI-H23 lung; 0.0825 µM and 0.0586 µM with OVCAR-5 ovarian; less than 0.034 µM with SF-539 CNS; less than 0.0342 µM with U251 CNS.

Consider `NS(=O)(=O)c1ccc(NCc2cnc3ccccc3c2)cc1`, for which the TGI in the assay on BT-549 breast, in the assay with HS 578T breast, with K-562 leukemia, in the assay on NCI-H23 lung, in the assay with NCI-H522 lung and in the assay with OVCAR-5 ovarian was greater than 100 µM throughout. Moreover, the TGI with SF-539 CNS, with SK-MEL-5 melanoma and with U251 CNS was greater than 100 µM in each case.

For the molecule `O=C(O)C#Cc1ccc([N+](=O)[O-])cc1`, the TGI in the assay on BT-549 breast, in the assay on HS 578T breast, in the assay with K-562 leukemia, in the assay on LOX IMVI melanoma, in the assay with NCI-H23 lung and with OVCAR-5 ovarian was greater than 100 µM throughout. Besides, the TGI in the assay with SF-539 CNS, in the assay with SK-MEL-5 melanoma and in the assay on U251 CNS was greater than 100 µM in each case.

On to `Cc1ccc(C2CC(c3cccc(Nc4ccncc4)c3)=NN2c2ccc(Cl)cc2)cc1` (centres undefined), for which the GI50 was 1.81 µM in the assay on BT-549 breast; 1.84 µM with K-562 leukemia; 1.62 µM with LOX IMVI melanoma; 1.77 µM in the assay on NCI-H23 lung; 1.78 µM in the assay with NCI-H522 lung; 1.61 µM in the assay on OVCAR-5 ovarian. The GI50 is 1.74 µM in the assay with SF-539 CNS, 1.76 µM in the assay with SK-MEL-5 melanoma and 1.85 µM with U251 CNS. Also, the TGI in the assay with BT-549 breast was 3.4 µM; with K-562 leukemia, 4.46 µM; in the assay with LOX IMVI melanoma, 2.97 µM; with NCI-H23 lung it was 3.39 µM; in the assay with NCI-H522 lung, 3.67 µM; with OVCAR-5 ovarian, 2.99 µM. The TGI in the assay on SF-539 CNS worked out at 3.14 µM; with SK-MEL-5 melanoma, 3.16 µM; in the assay on U251 CNS it was 3.64 µM.

With `Clc1cccc(Cc2cn3cc(-c4ccccc4)nc3s2)c1`, the GI50 with BT-549 breast was 28.8 µM; with HS 578T breast, 13.4 µM; with K-562 leukemia it was 0.591 µM; in the assay on LOX IMVI melanoma, 0.629 µM; with NCI-H23 lung, 9.07 µM; in the assay with OVCAR-5 ovarian, 66.8 µM. The GI50 in the assay with SF-539 CNS is 8.31 µM; in the assay on SK-MEL-5 melanoma, 2.67 µM; in the assay with U251 CNS, 9.18 µM. In addition, the TGI in the assay on BT-549 breast is greater than 100 µM; in the assay with HS 578T breast, greater than 100 µM; with K-562 leukemia, greater than 100 µM; with LOX IMVI melanoma, greater than 100 µM; with NCI-H23 lung, 98.9 µM; in the assay on OVCAR-5 ovarian, greater than 100 µM. In addition, the TGI in the assay on SF-539 CNS is greater than 100 µM; in the assay with SK-MEL-5 melanoma, greater than 100 µM; in the assay on U251 CNS, 81.2 µM.

For the molecule `COc1ccc(C2SC(C)C(=O)N2NC(=O)C(O)c2ccccc2)cc1` (centres undefined), the GI50 with BT-549 breast, with HS 578T breast, in the assay with K-562 leukemia, in the assay with LOX IMVI melanoma, in the assay on NCI-H522 lung and in the assay with OVCAR-5 ovarian was greater than 100 µM in each case. In addition, the GI50 in the assay on SF-539 CNS, in the assay with SK-MEL-5 melanoma and in the assay on U251 CNS was greater than 100 µM each time. In addition, the TGI in the assay on BT-549 breast, with HS 578T breast, in the assay on K-562 leukemia, with LOX IMVI melanoma, in the assay with NCI-H522 lung and in the assay with OVCAR-5 ovarian was greater than 100 µM each time. Also, the TGI in the assay on SF-539 CNS, with SK-MEL-5 melanoma and with U251 CNS was greater than 100 µM throughout.
